From patent publication US20150190416A1, “FILAGGRIN PRODUCTION PROMOTER, THERAPEUTIC AGENT FOR DISEASES ASSOCIATED WITH REDUCTION IN PRODUCTION OF FILAGGRIN, AND METHOD FOR SCREENING FOR SAID THERAPEUTIC AGENT” (KYOTO UNIVERSITY, priority 2012, published 2015)

Experiments:
GPR142 = test: Action on adenylate cyclase activity (cAMP) in GPR142-overexpressing HEK293T cells (Examples 8 and 9); assay type: cell-based, human; conditions: forskolin 10 μM, IBMX 1 mM
Experimental: In this example, the cAMP production-suppressing effect of Compound 1 was confirmed.
1) 6×10^4 cells/well of HEK293T cells were plated on a collagen-coated 24-well plate, a culture medium containing DMEM medium (Invitrogen) supplemented with penicillin (50 μg/ml), streptomycin (50 μg/ml), and fetal bovine serum (FBS) (10%, v/v) was added to the plate, and the cells were cultured under the conditions of 37° C. and 5% CO2.
2) A GPR142PCXN mammalian expression vector was prepared in the same manner as in the step 2) of Example 7.
3) After culture for 1 day under the conditions of the step 1), HEK293T cells were transfected with 0.2 μg of the GPR142PCXN mammalian expression vector per well by using a transfection reagent Fugene™ HD (Promega Corporation) according to the manufacturer's protocol. As a control, cells transfected only with the PCXN mammalian expression vector were used.
4) After culture for 1 day after the transfection described above, 1 mM of isobutylmethylxanthine (IBMX), which was a cAMP phosphodiesterase inhibitory substance, was added to HEK293T cells, and thereafter, the cells were cultured for 10 minutes at 37° C.
5) Next, the medium was exchanged for the culture medium to which 0.1 nM to 1000 nM of a DMSO solution of Compound 1, 10 μM of forskolin, and 1 mM of IBMX per well were added, and the cells were further cultured for 20 minutes at 37° C. As a control, a solvent (vehicle), 10 μM of forskolin, and 1 mM of IBMX were added.
6) The cells cultured in the step 5) were lysed by 0.1 mol/L of HCl. The cAMP concentration within the cells was measured by using Cyclic AMP EIA Kit (Cayman Chemical Company) according to the manufacturer's protocol. The result is shown as the ratio (%) of the cAMP concentration in the cells treated with Compound 1 with respect to the cAMP concentration in the control example defined as 100%.
In this example, the cAMP production-suppressing effect of Compound 2 or 3 was confirmed.
HEK293T cells were cultured in the same manner as in the steps 1) to 4) of Example 8. Next, the cells were cultured in the same manner as in the step 5) of Example 8 except that, in the step 5) of Example 8, each of a methanol solution of Compound 3, a DMSO solution of Compound 2, and a DMSO solution of Comparative Compound 2 was used at 1,000 nM per well instead of Compound 1. The cAMP concentration in the cultured cells was measured in the same manner as in the step 6) of Example 8.

FLG monomer = FLG monomer in three-dimensional cultured skin, Western blotting (Example 11); assay type: cell-based, human; conditions: 1 μM, immunoblotting
Experimental: In this example, the expression-increasing effect of Compound 1 on FLG monomer was examined by using a three-dimensional cultured skin. The expression of the FLG monomer was confirmed by Western blotting.
In this example, the same procedures as those in the steps 1) to 3) of Example 10 were conducted. It should be noted that as a medicament, D) Comparative Compound 3 (M344) was used, as well as A) Compound 1 and C) Comparative Compound 2 of Example 10.
4) The three-dimensional cultured skin obtained in the same manner as in the steps 1) to 3) of Example 10 was recovered, and was cut into pieces with scissors. Then, 100 μl of Lysis buffer (0.1 M Tris-HCl (pH 9.0), 6 M Urea, 1% 2-mercapto-ethanol, 1% SDS, 1 mM EDTA, and Protease inhibitor cocktail) were added and the cells were homogenized with an electrically powered pestle. The homogenized cells were centrifuged at 15,000 rpm at 4° C. for 20 minutes, and the supernatant was recovered to be used as a sample for measurement. The total protein in the sample was quantified by using a protein assay reagent (Bio-Rad Laboratories, Inc.) according to the manufacturer's protocol. The protein was adjusted so that each sample contained 15 μg protein/lane, and the samples were subjected to electrophoresis by SDS-PAGE (Invitrogen, NuPAE Novex Bis-Tris mini Gel 4 to 12%) under the conditions of 100 V and 2 hours. As a marker, Precision Plus Protein Standards (Bio-Rad Laboratories, Inc.) was used. The proteins separated by the electrophoresis were transferred to a PVDF membrane (blotting), and the expression of FLG monomer was confirmed by using an anti-FLG antibody (Filaggrin AKH1, Santa Crus). At that time, Anti-mouse IgG-HRP (GE Healthcare) was used as a secondary antibody, and Amersham ECL Plus Western Blotting Detection Reagents (GE Healthcare) was used as a color developer.

SMILES	cAMP production-suppressing action, in words (GPR142; GPR142-overexpressing HEK293T cells, 1,000 nM)	production of FLG monomer (FLG monomer)	cAMP production (GPR142; GPR142-overexpressing HEK293T cells, 0.1 nM to 1000 nM, 20 minutes)	production of pro-FLG (FLG monomer)	decrease of cAMP production (GPR142; GPR142-overexpressing HEK293T cells, 1,000 nM, 20 minutes)
O=C(CCCCCN1C(=O)c2cccc3cccc(c23)C1=O)NO [Comparative Compound 2, 6-(1,3-Dioxo-1H,3H-benzo[de]isoquinolin-2-yl)hexanoic acid hydroxyamide, reference compound]	no cAMP production-suppressing action was observed	clear production of FLG monomer was not observed	–	–	–
CCc1ccc(OCc2ccccc2C(=O)Nc2ccc3nc(C)cc(N)c3c2)cc1.Cl [Compound 1, N-(4-Amino-2-methyl-6-quinolyl)-2-[(4-ethylphenoxy)methyl]benzamide hydrochloride]	–	clear production of FLG monomer was confirmed	decreased cAMP production via GPR142 dose-dependently	production of a large amount of pro-FLG	–
CC[C@H](C)[C@H]1O[C@]2(CC[C@@H]1C)C[C@@H]1C[C@@H](C/C=C(\C)[C@@H](O[C@H]3C[C@H](OC)[C@@H](O[C@H]4C[C@H](OC)[C@@H](O)[C@H](C)O4)[C@H](C)O3)[C@@H](C)/C=C/C=C3\CO[C@@H]4[C@H](O)C(C)=C[C@@H](C(=O)O1)[C@]34O)O2 [Compound 2, Ivermectin, reference compound]	–	–	–	–	about 20%
